Laboratory results as given in patent publication US20220218667A1, “DUAL INHIBITORS OF SOLUBLE EPOXIDE HYDROLASE AND METHODS OF USE THEREOF” (OROX Biosciences, Inc., priority 2019, published 2022).
Where two headings read alike, the source gives them in different places. Marks after values point to notes of the source that are not given here.

Columns and labels:
[1] = system: C57B/L6 mice exposed to bleomycin; assay: Example 1: prophylactic treatment of mice exposed to bleomycin (IPF model); format: in vivo, mouse; settings: OX1, OX3, Nintedanib 30 mg/kg QD, Pirfenidone 100 mg/kg BID; for body weight course over 21 days: bleomycin mice, oral gavage day -1 to 20; for neutrophil migration into BALF / number of lymphocytes in BALF / total cell (leukocyte) count in BALF / increased collagen (fibrosis) score, trichrome / mean Ashcroft score (lung histology) / mean score for mixed peribronchiolar/perivascular inflammation: day 21; for neutrophil migration into BALF / number of lymphocytes in BALF / total cell (leukocyte) count in BALF: oral; for increased collagen (fibrosis) score, trichrome / mean Ashcroft score (lung histology) / mean score for mixed peribronchiolar/perivascular inflammation: compared to vehicle (Group 2)
Description: 4-(5-phenyl-3-{3-[3-(4-trifluoromethyl-phenyl)-ureido]-propyl}-pyrazol-1-yl)-benzenesulfonamide (PTUPB) [termed OX1] was compared to Pirfenidone, Nintedanib, and GSK225629415 [termed OX3] for treatment of IPF using an established model for IPF treating, which is prophylactic treatment of mice exposed to the chemotherapeutic agent bleomycin. […] Pirfenidone and Nintedanib are standard of care for the treatment of idiopathic pulmonary fibrosis and served as reference compounds in the experiment.
C57B/L6 mice were used in the experiments. When used, Bleomycin was administered intra-oropharyngeally, 1.5 U/kg, QD per established protocol. The test articles were dosed via oral gavage in 200 μL/day vehicle. The doses and formulations of test articles were selected based on the literature describing the lowest doses capable of eliciting pharmacological action.
Animals were dosed with the test articles (or vehicle) starting at day −1 to day 20. On day 1, daily doses of Bleomycin commenced in all but group 1 (negative control) which received the vehicle. On day 21, all animals were weighed and sacrificed. After lungs and bronco-alveolar lavage fluid (BALF) were harvested, they were prepared according to standard procedures for further analysis and histology. All animals were assessed twice a week for body weight and overall appearance. Efficacy endpoints measured in this study included lung weight, total leukocytes, and histology as determined by Mason's Trichrome stain and scored using a modified Ashcroft score.
The following parameters were measured in bronchoalveolar fluid (BALF): 1) soluble collagen and 2) differential leukocyte counts for different leukocyte populations.
After weighing and removal of BALF from the lungs, they were inflated and fixed using 10% neutral buffered formalin for histopathology analysis. Fifty-four formalin-fixed lung samples from mice were submitted to HistoTox Labs and were processed routinely. Two slides from each block were sectioned and stained with hematoxylin and eosin (H&E) or Masson's trichrome. Glass slides were evaluated with light microscopy by a board-certified veterinary pathologist. Lung sections were scored according to the modified Ashcroft scale.

[2] = system: C57BL/6 mice, bleomycin-induced fibrotic lung injury; assay: Example 2: therapeutic treatment in bleomycin-induced idiopathic pulmonary fibrosis mouse model; format: in vivo; settings: OX1 60 mg/kg, Pirfenidone 100 mg/kg
Description: The purpose of this study is to induce fibrotic lung injury in mice via a single administration of a glycopeptide antibiotic, bleomycin, in order to evaluate the efficacy of dual sEH and COX-2 inhibitor OX-1 in treating and reducing the symptoms associated with idiopathic pulmonary fibrosis. Pirfenidone, standard of care for the treatment of idiopathic pulmonary fibrosis, was used as a reference compound.
Male C57BL/6 mice from Charles River Laboratories aging of 7-8 weeks and weighing around 18-22 g at the time of their enrollment were used in the study.
Doses of OX1 at 60 mg/kg, Pirfenidone at 100 mg/kg, and the disease inducer Bleomycin at 1.5 mg/kg were used. A dosing rate of 10 mL/kg (approximately 0.2 mL/mouse according to their body weight) of OX1 was administered orally once daily to the mice. The mice received OX1 at 60 mg/kg once daily. A dosing rate of 10 mL/kg (approximately 0.2 mL/mouse according to their body weight) of Pirfenidone solution was administered once daily to the mice of the groups receiving Pirfenidone orally at the dose of 100 mg/kg once daily. A single intratracheal instillation of approximately 50 μL (1.5 mg/kg with a dosing rate of 2.5 mL/kg in sterile 0.9% saline) of bleomycin solution was administered to all mice except the sham group on day 0. Animals in the Sham group received one intratracheal instillation of approximately 50 μL of 0.9% saline solution on Day 0 and returned to their respective cages.
Treatment with the vehicle or test articles were initiated and administered starting on day 7 to day 21 as scheduled and described in Table 1 above. All test articles, reference compound and vehicle were administered to animals orally once daily. Food and water were given ad libitum. Daily observations of the behavioral and general health status of the animals were done. Daily body weight was also measured.
Prior to physiological assessment, all mice were introduced to the plethysmograph chamber environment. After the acclimatization period, the functional respiratory parameters were assessed by the whole-body plethysmograph on Day 0 (before bleomycin instillation), 7, 14 and 21 post-bleomycin instillation. Each measurement was performed with a mouse placed alone in an unrestrained whole-body plethysmography chamber (Buxco Electronics Inc.) to measure respiratory functions. The functional respiratory parameters analyzed included; the respiratory rate, the PenH ([…]) and the inspiratory/expiratory time measurements.
On the surgery day (Day 21), the mice were anesthetized, instrumented and arterial blood oxygen saturation (SpO2) was recorded. Blood oxygen saturation was read off of the pulse oximeter (STARR Life Sciences MouseOx Plus system, Oakmont, Pa.) with the probe attached to the right thigh of the animal. The saturation values were measured in percentage (%). At the moment of the sacrifice, the mouse thoracic cavity was open to expose the lungs and all mice were euthanatized by exsanguination. The trachea was then connected to the cannula of a perfusion system. The left lung was clamped while 1.5 mL of cold PBS solution (3×500 μL) was injected by the trachea to perform a bronchoalveolar lavage fluid (BALF) on the right lobe of the lungs and was collected on ice for further analysis. The total cells count with cells differential, the cytokine levels including TNF-α, TGF-β, IL-4, IL-5 and IL-17a, the total protein content as well as the soluble collagen were assessed in the BALF samples. Once collected, 300 μL of the BALF was transferred in an EDTA tube, kept at 2-4° C. and shipped to Biovet Inc. for the total cells count with cells differential analysis. The remaining BALF sample was centrifuged at 1200 rpm for 10 minutes at 4° C. to remove cells. The supernatant was aliquots and frozen at−80° C. until analysis was performed. […]

[3] = system: Human primary lung fibroblasts from IPF donors; assay: Fibroblast-to-Myofibroblast Transition (FMT) assay; format: cell-based; settings: for IC50: Homo sapiens, Primary lung fibroblast, 1.25 ng/ml TGF-b1
Description: OX1 was evaluated in a primary cell-based Fibroblast-to-Myofibroblast Transition (FMT) assay; an in vitro assay relevant to idiopathic pulmonary fibrosis (TPF). Human primary lung fibroblasts from three (3) IPF donors (IPF06, IPF07, and IPF08) were triggered using 1.25 ng/ml TGF-b1 to induce FMT, one hour after application of compounds. OX1 and Nintedanib (approved drug for TPF) were applied in […] in semi-log dilutions with the top concentration at […] to construct eight (8)-point concentration response curve (CRC) in biological duplicates (ie. on two (2) different cell plates at on (1) occasion). SB525334 was used at […] in 0.1% DMSO as a positive validation control. The readouts at 72 hours were high content analysis (HCA) for aSMA expression and DAPI staining for nuclear count as measurement of potential cytotoxic effects.

[4] = lung histopathology day 21, mean
[5] = mean, BLM mice, oral once daily day 7 to 21

Cc1ccc(=O)n(-c2ccccc2)c1 [Pirfenidone]
body weight course over 21 days [1]: sustained weight loss
neutrophil migration into BALF [1]: did not exhibit any effects
number of lymphocytes in BALF [1]: trend increasingly lower
total cell (leukocyte) count in BALF [1]: did not demonstrate the same level of reduction
increased collagen (fibrosis) score, trichrome [1]: slightly lower
mean Ashcroft score (lung histology) [1]: slightly lower
mean score for mixed peribronchiolar/perivascular inflammation [1]: similar
Eosinophils (cells) ([2]; BALF day 21, mean): 874 cells
Lymphocytes (cells) ([2]; BALF day 21, mean): 174517 cells
Macrophages (cells) ([2]; BALF day 21, mean): 204110 cells
Neutrophils (cells) ([2]; BALF day 21, mean): 6999 cells
Soluble collagen ([2]; BALF day 21, mean): 197.82 µg
Total BALF cytokines (pg) IL-4 ([2]; BALF day 21, mean): 0.00 pg
Total BALF cytokines (pg) IL-5 ([2]; BALF day 21, mean): 2.17 pg
Total BALF cytokines (pg) IL-6 ([2]; BALF day 21, mean): 11.98 pg
Total BALF cytokines (pg) IL-17 ([2]; BALF day 21, mean): 0.00 pg
Total BALF cytokines (pg) IP-10 ([2]; BALF day 21, mean): 15.24 pg
Total BALF cytokines (pg) LIF ([2]; BALF day 21, mean): 24.67 pg
Total BALF cytokines (pg) MIG ([2]; BALF day 21, mean): 8.58 pg
Total BALF cytokines (pg) TNFa ([2]; BALF day 21, mean): 0.00 pg
Total TGFβ ([2]; BALF day 21, mean): 472.64 pg
Total cell counts (cells) ([2]; BALF day 21, mean): 386500 cells
Percent Survival (%) ([2]; BLM mice, oral once daily day 7 to 21): 91.70%
Ashcroft score [2, 4]: 3.5 ††
Collagen content (%) [2, 4]: 5.91%
Pulmonary foci (%) [2, 4]: 7.46%
Body weight changes from day 0 (%) [2, 5]: 2.47%
Body weight changes from day 7 (%) [2, 5]: 6.49%

COC(=O)c1ccc2c(c1)NC(=O)/C2=C(\Nc1ccc(N(C)C(=O)CN2CCN(C)CC2)cc1)c1ccccc1 [Nintedanib]
body weight course over 21 days [1]: sustained weight loss
neutrophil migration into BALF [1]: effective
number of lymphocytes in BALF [1]: trend increasingly lower
total cell (leukocyte) count in BALF [1]: largest reduction
increased collagen (fibrosis) score, trichrome [1]: the highest
mean Ashcroft score (lung histology) [1]: the highest
mean score for mixed peribronchiolar/perivascular inflammation [1]: similar
Loss of Nuclei ([3]; DAPI staining, nuclear count as measure of potential cytotoxic effects, 72 hours): Yes
IC50 ([3]; donor IPF06, readout at 72 hours, read-out: αSMA inhibition IC50 (μM), Patient Identifier IPF06): 0.6 µM
IC50 ([3]; donor IPF07, readout at 72 hours, read-out: αSMA inhibition IC50 (μM), Patient Identifier IPF07): 0.6 µM
IC50 ([3]; donor IPF08, readout at 72 hours, read-out: αSMA inhibition IC50 (μM), Patient Identifier IPF08): 0.4 µM
IC50 ([3]; mean of three IPF donors, 72 hours, read-out: αSMA inhibition IC50 (μM), Mean): 0.5 µM
